Laboratory results reported in patent US20230113817A1, “DILEUCINE COMPOSITIONS AND METHODS OF USE THEREOF FOR FAT LOSS” (Ingenious Ingredients, LP, priority 2021, published 2023).

What was measured:
[1] = test system: body fat of overweight subjects; assay: Resistance exercise training study, body composition and body fat; assay type: in vivo, human; details: 2 g per day, n=7 per treatment group, beginning vs conclusion of study (FIG. 2)
From the text: A randomized, double-blind, cross over design, resistance exercise training study was preformed to assess the impact of administration of the instantly disclosed compositions on subject body composition and body fat. Subjects were “overweight”, BMI of 26.8 in the leucine group, 25.0 in the dileucine group. Treatment groups received either leucine (2 g per day), dileucine (2 g per day), or placebo (n=7, per treatment group). Body measurements were taken at the beginning and conclusion of the study.

[2] = test system: body weight of male Swiss albino mice; assay: Weight management study in treadmill-trained mice; assay type: in vivo; details: daily treatment for 28 days
Experimental: Animal studies were conducted to investigate the effects of test substances (treatment) on weight management in male Swiss albino mice. Animals were divided into 17 groups with each group consisting of 8 animals. The test groups were treated with the test substances daily for 28 days. All the animals were subjected to treadmill training for 5 days a week for 28 days. Measurements were taken on day 0 and 28th day.

Row | SMILES | body fat following resistance training [1] | Weight in grams ([2]; treadmill training 5 days a week, dileucine 411 mg/kg, partner doses per Table 1) [grams] | Percent Difference from Placebo ([2]; weight vs control group, treadmill training, doses per Table 1) [%]
1 | CC(C)C[C@H](NC(=O)[C@@H](N)CC(C)C)C(=O)O [Dileucine, L-Leucyl-L-leucine] | decreased body fat | 33.23 | −2.69
2 | CC(C)C[C@H](N)C(=O)O [leucine] | modest increases in body fat |  | 
